target: dopamine D1 receptor (Cyprinus carpio); assay: Concentration required to inhibit 50% dopamine receptor D1 activity using cell free homogenate of carp retina

SMILES	EC50 [µM]
NC[C@@H]1OC(c2ccc(Br)cc2)Cc2c1ccc(O)c2O (stereo partly specified)	0.001
NC[C@@H]1OC(CCc2ccccc2)Cc2c1ccc(O)c2O (stereo partly specified)	0.0052
NC[C@@H]1OC(COc2ccccc2)Cc2c1ccc(O)c2O (stereo partly specified)	0.024
OCCCNC[C@@H]1OC(C2CCCCC2)Cc2c1ccc(O)c2O (stereo partly specified)	1.74
CCCCC1Cc2c(ccc(O)c2O)[C@H](CN)O1 (stereo partly specified)	0.0063
Oc1ccc2c(c1O)CC(C1CCCCC1)O[C@H]2CNC1CC1 (stereo partly specified)	0.124
COc1cccc(C2Cc3c(ccc(O)c3O)[C@H](CN)O2)c1 (stereo partly specified)	0.0064
C#CCNC[C@@H]1OC(C2CCCCC2)Cc2c1ccc(O)c2O (stereo partly specified)	0.013
NC[C@@H]1OC2(CCCCC2)Cc2c1ccc(O)c2O	0.069
CCCCCCC1Cc2c(ccc(O)c2O)[C@H](CN)O1 (stereo partly specified)	0.014
NC[C@@H]1OC(CC2CCCC2)Cc2c1ccc(O)c2O (stereo partly specified)	0.0067
NC[C@@H]1OC(Cc2ccccc2)Cc2c1ccc(O)c2O (stereo partly specified)	0.034
NC[C@@H]1OC(c2ccc(I)cc2)Cc2c1ccc(O)c2O (stereo partly specified)	0.002
NC[C@@H]1OC(COCc2ccccc2)Cc2c1ccc(O)c2O (stereo partly specified)	0.089
CC[C@@H]1Cc2c(ccc(O)c2O)[C@H](CN)O1	0.142
CC[C@H]1Cc2c(ccc(O)c2O)[C@H](CN)O1	0.232
